# Results as given in patent US5250416A, “Method for highly sensitive determination of NADH using kinase” (Noda Institute for Scientific Rsearch, priority 1991, dated 1993).
# Experiments:
# [1] = target: T1, NADH kinase B (Saccharomyces cerevisiae, UniProt Q06892); settings: as substrate of NADH kinase B; from reference; cited from earlier work
# T1 sequence (Q06892 1-414): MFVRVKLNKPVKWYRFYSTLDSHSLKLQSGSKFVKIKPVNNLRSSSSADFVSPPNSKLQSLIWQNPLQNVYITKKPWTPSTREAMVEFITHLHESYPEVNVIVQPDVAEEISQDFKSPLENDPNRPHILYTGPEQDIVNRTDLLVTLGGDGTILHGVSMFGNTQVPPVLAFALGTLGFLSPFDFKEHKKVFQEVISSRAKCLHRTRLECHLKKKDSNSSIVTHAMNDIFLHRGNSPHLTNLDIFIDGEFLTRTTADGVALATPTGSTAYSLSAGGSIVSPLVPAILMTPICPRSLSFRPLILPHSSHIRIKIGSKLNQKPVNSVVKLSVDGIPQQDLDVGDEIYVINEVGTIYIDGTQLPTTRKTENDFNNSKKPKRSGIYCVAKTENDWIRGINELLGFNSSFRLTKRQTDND
# [2] = target: T2, NADH kinase A (Saccharomyces cerevisiae, UniProt Q06892); settings: as substrate of NADH kinase A; from reference; cited from earlier work
# T2 sequence (Q06892 1-414): T1 sequence (Q06892 1-414)
# [3] = test system: NADH kinase (the present enzyme); test: Km value (Michaelis constant) of the present enzyme for NADH; assay type: biochemical, Pichia membranaefaciens; settings: 30° C., pH 7.8 (Tris buffer)
# Protocol: 0.9 Milliliters of the substrate solution containing NADH shown in Table 2 was preheated to 30° C., after which 0.1 ml of a solution of the present enzyme having an adequate concentration was added, and the reaction was carried out at 30° C. for 20 minutes. Thereafter, the reaction was terminated by heat treatment at 100° C. for 2 minutes, and the denatured protein was removed. Then, the amount of NADPH produced by the reaction of the substrate was measured as follows. As a control solution, there was used a mixture of the substrate solution and the present enzyme in which the reaction had been terminated immediately after mixing them.
# With 1 ml of each of the reaction solutions obtained in the above was mixed 1 ml of a color-producing solution having the same composition as that of the color-producing solution described in the above item "Substrate specificity". […] Simultaneously with the reaction, the change of absorbance at 600 nm was measured with the lapse of time, and the difference (ΔOD600nm /min) between absorbance values 1 minute and 2 minutes after the initiation of the coloration reaction was obtained as a measured value. By the use of a calibration curve of ΔOD600nm /min versus NADPH concentration previously prepared using NADPH solutions of known concentrations, the amount of the NADPH produced was calculated from the measured value.
# [4] = test system: NADH kinase (the present enzyme); test: Substrate specificity of the present enzyme (NADH kinase); assay type: biochemical, Pichia membranaefaciens; settings: for Relative activity (%): as substrate of the present enzyme, 30° C., 20 minutes, pH 8.5, relative to NADH = 100; for Action of the present enzyme on the substrate (in words): substrate specificity
# Protocol: The substrate specificity of the present enzyme was examined under the following reaction conditions.
# To 0.9 ml of each of the substrate solutions containing NADH or NAD^+, respectively, shown in Table 1 was added 0.1 ml of 23 U/ml of the present enzyme, and the reaction was carried out at 30° C. for 20 minutes. Then, the reaction was terminated by heat treatment at 100° C. for 2 minutes, and the denatured protein was removed, after which the amount of NADPH or NADP^+ produced by the reaction of the corresponding substrate was measured as follows. As a control solution, there was used a mixture of each substrate solution and the present enzyme in which the reaction had been terminated immediately after mixing them.
# With 1 ml of each of the reaction solutions obtained in the above was mixed 1 ml of a color-producing solution consisting of 10 mM G-6-P, 50 mM HEPPS buffer (pH 8.0), 10 mM magnesium chloride, 0.1% bovine serum albumin, 2.5 IU/ml G-6-P dehydrogenase (NADP^+ -dependent), 5 IU/ml diaphorase and 250 μM 2,6-dichlorophenolindophenol. The resulting mixture was immediately introduced into a constant-temperature cuvette of STASAR III spectrophotometer of Gilford and subjected to reaction at 30° C. Simultaneously with the reaction, the change of absorbance at 600 nm was measured with the lapse of time, and the difference (ΔOD600nm /min) between absorbance values 1 minute and 2 minutes after the initiation of the coloration reaction was taken as a measured value. As to the relative activity (%), a measured value (ΔOD600nm /min) obtained by using NAD^+ as substrate was shown as a percentage based on a measured value (ΔOD600nm /min) obtained by using NADH as substrate.
# [5] = test system: NADH kinase (the present enzyme); test: Inhibition, activation and stabilization of the present enzyme; assay type: biochemical, Pichia membranaefaciens
Stabilization of the present enzyme [5],Compound,"Specificity (relative activity, NADH = 100) [1]","Specificity (relative activity, NADH = 100) [2]",Km [3] [µM],Relative activity (%) [4] [%],Action of the present enzyme on the substrate (in words) [4]
,NC(=O)C1=CN([C@@H]2O[C@H](COP(=O)(O)OP(=O)(O)OC[C@H]3O[C@@H](n4cnc5c(N)ncnc54)[C@H](O)[C@@H]3O)[C@@H](O)[C@H]2O)C=CC1 [NADH],100,100,27,100,very high specificity
stabilized,CC(=O)N[C@@H](CS)C(=O)O [N-acetyl-L-cysteine],,,,,
,NC(=O)c1ccc[n+]([C@@H]2O[C@H](COP(=O)([O-])OP(=O)(O)OC[C@H]3O[C@@H](n4cnc5c(N)ncnc54)[C@H](O)[C@@H]3O)[C@@H](O)[C@H]2O)c1 [NAD^+],1.6,1.7,,0.9,hardly acts
stabilized,O[C@H](CS)[C@H](O)CS (racemic) [dithiothreitol],,,,,
